Assay results reported in patent US20070207104A1, “Antimicrobial esters” (priority 2006, published 2007).
Where two headings read alike, the source gives them in different places.

Key:
[1] = system: Gram-positive bacteria: Staphylococcus aureus, and Bacillus subtilis; test: Minimal inhibitory concentration, agar dilution (Mueller-Hinton), Gram-positive bacteria; format: cell-based; details: for visible growth on agar plates: Gram Positive Organisms, concentration 0.3 %; for Minimum Inhibitory Concentration (MIC): Gram Positive Bacteria Staphylococcus aureus, Staphlyococcus epidermidis, Bacillus subtilis
Procedure: Mueller-Hinton is the agar medium used in these studies. Dilutions of materials to be tested were made directly into warm molten agar as described below to achieve the final concentration range (0-6%) shown in the Tables below.
(§1) Agar was prepared as recommended by the manufacturer. Sterilized agar was allowed to cool to 50° C. in a water bath and dispensing an appropriate amount into sterile containers. The agent being tested was added to the agar and thoroughly mixed. Plates were then poured and allowed to solidify at room temperature. All plates were used immediately and not stored.
(§2) A standard inoculating loop was used to deliver and spread the inoculum on the plates. Plates were allowed to dry at room temperature before inverting and incubation. Bacterial plates were incubated at 35° C. for 48 hours while fungal plates were incubated at 25° C. for 72 hours. All plates were visually inspected immediately following incubation and the results recorded.
(§3) The organisms tested were the following: Gram-positive bacteria: Staphylococcus aureus, and Bacillus subtilis; Gram-negative bacteria: Escherichia coli and Pseudomonas aeruginosa; and Fungi: Candida albicans, Asperillus niger and Penicillium notatum.
The results below are expressed as the concentration (%) of agent corresponding to the MIC for each group of organisms tested.

[2] = system: Gram-negative bacteria: Escherichia coli and Pseudomonas aeruginosa; test: Minimal inhibitory concentration, agar dilution (Mueller-Hinton), Gram-negative bacteria; format: cell-based; details: for visible growth on agar plates: Gram Negative Organisms, concentration 0.3 %; for Minimum Inhibitory Concentration (MIC): Gram Negative Bacteria Escherichia coli, Pseudomonas aeruginosa
Procedure: (§4) The minimal inhibitory concentration of the composition was determined based on methods as described in the United States Pharmacopiea, National Formulary (“USP, NF”), NF 18, 1995, Microbial Assays and Journal of Applied Microbiology 89(2): 275-279 by testing microorganisms for their ability to produce visible growth on a series of agar plates containing dilutions of the composition. Mueller-Hinton is the agar medium used in these studies. Dilutions of materials to be tested were made directly into warm molten agar as described below to achieve the final concentration range (0-6%) shown in the Tables below.
as §1
as §2, with “Broth cultures (24 hours) were adjusted photometrically to give 10^7 CFU/ml (colony forming units/ml) and the plates were inoculated within 30 minutes of standardizing the inoculum. A standard” for “A standard”
as §3
(§5) The effects of the structure of the polyhydric alcohol, the structure of the carboxylic acid and the extent of alkoxylation on antimicrobial activity were determined using the MIC assay as described in Example 1. The results below are expressed as the concentration (%) of agent corresponding to the MIC for each group of organisms tested.

[3] = Solubility in water / oil; format: physicochemical
[4] = system: Fungi: Candida albicans, Asperillus niger and Penicillium notatum; test: Minimal inhibitory concentration, agar dilution (Mueller-Hinton), fungi; format: cell-based
Procedure: as §4, §1
as §2, with “Broth cultures (24 hours) were adjusted photometrically to give 10^7 CFU/ml (colony forming units/ml) and the plates were inoculated within 30 minutes of standardizing the inoculum. A standard” for “A standard”
as §3, §5

[5] = Safety testing: neat material on forearm of human volunteers under occlusive conditions for 48 hours; format: in vivo; parameters: key to dermal response score (6-point scale): 0=No evidence of any effect; +=Barely perceptible (Minimal, faint, uniform or spotty erythema); 1=Mild (Pink, uniform erythema covering most of the contact site); 2=Moderate (Pink-red erythema uniform in the entire contact site); 3=Marked (Bright re erythema with/without petechiae or papules); 4=Severe (Deep red erythema with/without vesiculation or weeping)
Procedure: The safety of G-18-O was tested using the neat (undiluted) material applied to the forearm of 51 human volunteers under occlusive conditions for 48 hours. These conditions are particularly aggressive, especially when compared with those in the prior art, where data on safety, if disclosed at all, is generally anecdotal using low concentrations of the agent. The dermal responses for G-18-O were scored by expert evaluators under clinical conditions according to the following 6-point scale: • 0=No evidence of any effect; • +=Barely perceptible (Minimal, faint, uniform or spotty erythema); • 1=Mild (Pink, uniform erythema covering most of the contact site); • 2=Moderate (Pink-red erythema uniform in the entire contact site); • 3=Marked (Bright re erythema with/without petechiae or papules); and • 4=Severe (Deep red erythema with/without vesiculation or weeping).

[6] = HLB value; format: physicochemical
[7] = system: Gram-positive and Gram-negative organisms as well as fungi; test: Antimicrobial activity in the MIC assay, all groups of organisms tested; format: cell-based
Procedure: as §4, §1
as §2, with “Broth cultures (24 hours) were adjusted photometrically to give 10^7 CFU/ml (colony forming units/ml) and the plates were inoculated within 30 minutes of standardizing the inoculum. A standard” for “A standard”, “results recorded. […]” for “results recorded.”
as §5

CCCCCCCC(=O)OCC(O)CO (centres unmarked) [Glyceryl Caprylate, reference compound]
visible growth on agar plates [1]: 50%
visible growth on agar plates [2]: 50%
oil solubility [3]: substantially oil soluble

Glycereth-7 Ethylhexanoate
Minimum Inhibitory Concentration (MIC) [4]: 1.5%
Minimum Inhibitory Concentration (MIC) [1]: 3%
Minimum Inhibitory Concentration (MIC) [2]: 3%

Glycereth-18 Benzoate
Minimum Inhibitory Concentration (MIC) [4]: >=6%
Minimum Inhibitory Concentration (MIC) [1]: 3%
Minimum Inhibitory Concentration (MIC) [2]: 3%

Glycereth-18 Ethylhexanoate [G-18-O]
Minimum Inhibitory Concentration (MIC) [4]: 1.5%
Minimum Inhibitory Concentration (MIC) [1]: 0.6%
visible growth on agar plates [1]: 50%
Minimum Inhibitory Concentration (MIC) [2]: 0.6%
visible growth on agar plates [2]: 50%
dermal response score (6-point scale) ([5]; forearm of 51 human volunteers, occlusive, all panelists): 0
skin irritation ([5]; intimate contact with skin, occlusive conditions): totally non-irritating
HLB value [6]: greater than 10
water solubility [3]: very water soluble
water solubility ([3]; listed as G-18-0): substantially water-soluble
water solubility ([3]; listed as Glycereth-18 ethylhexanoate): very water-soluble
antimicrobial activity [7]: effective antimicrobial agent
antimicrobial activity ([7]; listed as G-18-0): essentially equal to that of glyceryl caprylate

Glycereth-18 Laurate
Minimum Inhibitory Concentration (MIC) [4]: >=6%
Minimum Inhibitory Concentration (MIC) [1]: 0.6%
Minimum Inhibitory Concentration (MIC) [2]: 0.6%

Glycereth-18 Pelargonate
Minimum Inhibitory Concentration (MIC) [4]: 1.5%
Minimum Inhibitory Concentration (MIC) [1]: >=6%
Minimum Inhibitory Concentration (MIC) [2]: >=6%

Glycereth-18 [reference compound]
Minimum Inhibitory Concentration (MIC) [4]: >=6%
Minimum Inhibitory Concentration (MIC) [1]: >=6%
Minimum Inhibitory Concentration (MIC) [2]: >=6%
antimicrobial activity [7]: no activity

Glycereth-20 Ethylhexanoate
Minimum Inhibitory Concentration (MIC) [4]: 3%
Minimum Inhibitory Concentration (MIC) [1]: 3%
Minimum Inhibitory Concentration (MIC) [2]: 3%

Glycereth-40 Ethylhexanoate
Minimum Inhibitory Concentration (MIC) [4]: 1.5%
Minimum Inhibitory Concentration (MIC) [1]: 3%
Minimum Inhibitory Concentration (MIC) [2]: 3%

Propylene Glycol-18 Ethylhexanoate
Minimum Inhibitory Concentration (MIC) [4]: 1.5%
Minimum Inhibitory Concentration (MIC) [1]: >=6%
Minimum Inhibitory Concentration (MIC) [2]: >=6%
